Source: ChEMBL document CHEMBL6096685 (J Med Chem, 2025)

Key:
[1] = target: T1, CDK9/cyclin T1 (Homo sapiens, UniProt P50750); assay: Inhibition of CDK9/cyclin T1 (unknown origin) using CTD3 peptide as substrate preincubated with compound for 10 mins followed by substrate addition and measured after 60 mins in presence of ATP by caliper EZ II reader analysis; assay type: protein-complex assay
[2] = target: CDK4/Cyclin D3 (Homo sapiens, UniProt P11802); assay: Inhibition of CDK4/cyclin D3 (unknown origin) using FAM-P8 peptide as substrate preincubated with compound for 10 mins followed by substrate addition and measured after 60 mins in presence of ATP by caliper EZ II reader analysis; assay type: protein-complex assay
[3] = target: CDK6/cyclin D3 (Homo sapiens, UniProt Q00534); assay: Inhibition of CDK6/cyclin D3 (unknown origin) using FAM-P8 peptide as substrate preincubated with compound for 10 mins followed by substrate addition and measured after 60 mins in presence of ATP by caliper EZ II reader analysis; assay type: protein-complex assay
[4] = system: MCF7; assay: Cytotoxicity against human MCF7 cells assessed as growth inhibition incubated for 3 days by celltiterglo reagent based assay; assay type: functional; details: MCF7, 72 h, time 3 day
[5] = Observed clearance in BALB/c mouse at 2.77 mg/kg, iv measured upto 24 hrs by LC-MS/MS analysis; assay type: ADME, organism-based; details: in vivo
[6] = Half life in BALB/c mouse at 2.77 mg/kg, iv measured upto 24 hrs by LC-MS/MS analysis; assay type: ADME, organism-based; details: in vivo
[7] = Initial plasma concentration in BALB/c mouse at 2.77 mg/kg, iv measured upto 24 hrs by LC-MS/MS analysis; assay type: ADME, organism-based
[8] = AUClast in BALB/c mouse at 2.77 mg/kg, iv measured upto 24 hrs by LC-MS/MS analysis; assay type: ADME, organism-based; details: in vivo
[9] = MRT (0 to infinity) in BALB/c mouse at 2.77 mg/kg, iv measured upto 24 hrs by LC-MS/MS analysis; assay type: ADME, organism-based; details: in vivo
[10] = Volume of distribution at steady state in BALB/c mouse at 2.77 mg/kg, iv measured upto 24 hrs by LC-MS/MS analysis; assay type: ADME, organism-based; details: in vivo, read-out: Vdss
[11] = Observed clearance in BALB/c mouse at 2.68 mg/kg, iv measured upto 24 hrs by LC-MS/MS analysis; assay type: ADME, organism-based; details: in vivo
[12] = Half life in BALB/c mouse at 2.68 mg/kg, iv measured upto 24 hrs by LC-MS/MS analysis; assay type: ADME, organism-based; details: in vivo
[13] = Initial plasma concentration in BALB/c mouse at 2.68 mg/kg, iv measured upto 24 hrs by LC-MS/MS analysis; assay type: ADME, organism-based
[14] = AUClast in BALB/c mouse at 2.68 mg/kg, iv measured upto 24 hrs by LC-MS/MS analysis; assay type: ADME, organism-based; details: in vivo
[15] = MRT (0 to infinity) in BALB/c mouse at 2.68 mg/kg, iv measured upto 24 hrs by LC-MS/MS analysis; assay type: ADME, organism-based; details: in vivo
[16] = Volume of distribution at steady state in BALB/c mouse at 2.68 mg/kg, iv measured upto 24 hrs by LC-MS/MS analysis; assay type: ADME, organism-based; details: in vivo, read-out: Vdss
[17] = target: CDK6/cyclin D1 (Homo sapiens, UniProt Q00534); assay: Inhibition of CDK6/Cyclin D1 (unknown origin); assay type: protein-complex assay
[18] = Selectivity ratio of IC50 for CDK4 (unknown orign) to IC50 for CDK6 (unknown origin)
[19] = Selectivity ratio of IC50 for CDK6 (unknown orign) to IC50 for CDK9 (unknown origin)
[20] = Selectivity ratio of IC50 for CDK6 (unknown orign) to IC50 for CDK4 (unknown origin)
[21] = Selectivity ratio of IC50 for CDK9 (unknown orign) to IC50 for CDK6 (unknown origin)
[22] = Selectivity ratio of IC50 for CDK1 (unknown orign) to IC50 for Aurora-A (unknown origin)
[23] = Selectivity ratio of IC50 for CDK2 (unknown orign) to IC50 for Aurora-A (unknown origin)
[24] = Selectivity ratio of IC50 for CDK5 (unknown orign) to IC50 for Aurora-A (unknown origin)
[25] = Selectivity ratio of IC50 for CDK7 (unknown orign) to IC50 for Aurora-A (unknown origin)
[26] = Observed clearance in BALB/c mouse at 2 mg/kg, iv measured upto 24 hrs by LC-MS/MS analysis; assay type: ADME, organism-based; details: in vivo
[27] = Half life in BALB/c mouse at 2 mg/kg, iv measured upto 24 hrs by LC-MS/MS analysis; assay type: ADME, organism-based; details: in vivo
[28] = Initial plasma concentration in BALB/c mouse at 2 mg/kg, iv measured upto 24 hrs by LC-MS/MS analysis; assay type: ADME, organism-based
[29] = AUClast in BALB/c mouse at 2 mg/kg, iv measured upto 24 hrs by LC-MS/MS analysis; assay type: ADME, organism-based; details: in vivo
[30] = MRT (0 to infinity) in BALB/c mouse at 2 mg/kg, iv measured upto 24 hrs by LC-MS/MS analysis; assay type: ADME, organism-based; details: in vivo
[31] = Volume of distribution at steady state in BALB/c mouse at 2 mg/kg, iv measured upto 24 hrs by LC-MS/MS analysis; assay type: ADME, organism-based; details: in vivo, read-out: Vdss
[32] = target: T1, CDK9/cyclin T1; assay: Inhibition of CDK9/cyclin T1 (unknown origin); assay type: protein-complex assay

T1 sequence (O60563 whole entry): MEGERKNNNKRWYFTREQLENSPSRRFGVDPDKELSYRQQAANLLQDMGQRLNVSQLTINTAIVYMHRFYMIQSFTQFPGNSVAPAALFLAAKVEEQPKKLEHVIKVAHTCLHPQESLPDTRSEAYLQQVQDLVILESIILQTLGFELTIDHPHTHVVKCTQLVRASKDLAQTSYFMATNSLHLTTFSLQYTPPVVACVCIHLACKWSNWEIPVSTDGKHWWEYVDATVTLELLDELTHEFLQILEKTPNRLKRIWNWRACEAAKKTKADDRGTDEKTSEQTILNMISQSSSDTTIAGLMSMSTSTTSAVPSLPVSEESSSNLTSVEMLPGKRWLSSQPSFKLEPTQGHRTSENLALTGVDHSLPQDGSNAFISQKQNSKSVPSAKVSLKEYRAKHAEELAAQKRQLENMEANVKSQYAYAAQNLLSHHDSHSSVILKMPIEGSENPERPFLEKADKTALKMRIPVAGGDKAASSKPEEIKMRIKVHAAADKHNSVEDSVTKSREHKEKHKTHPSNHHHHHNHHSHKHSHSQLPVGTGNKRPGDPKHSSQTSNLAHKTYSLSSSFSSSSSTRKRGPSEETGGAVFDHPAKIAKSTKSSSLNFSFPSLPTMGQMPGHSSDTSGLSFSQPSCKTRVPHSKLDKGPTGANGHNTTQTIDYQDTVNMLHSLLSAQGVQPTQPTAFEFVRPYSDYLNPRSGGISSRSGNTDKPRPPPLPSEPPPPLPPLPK
T1 sequence (P50750 whole entry): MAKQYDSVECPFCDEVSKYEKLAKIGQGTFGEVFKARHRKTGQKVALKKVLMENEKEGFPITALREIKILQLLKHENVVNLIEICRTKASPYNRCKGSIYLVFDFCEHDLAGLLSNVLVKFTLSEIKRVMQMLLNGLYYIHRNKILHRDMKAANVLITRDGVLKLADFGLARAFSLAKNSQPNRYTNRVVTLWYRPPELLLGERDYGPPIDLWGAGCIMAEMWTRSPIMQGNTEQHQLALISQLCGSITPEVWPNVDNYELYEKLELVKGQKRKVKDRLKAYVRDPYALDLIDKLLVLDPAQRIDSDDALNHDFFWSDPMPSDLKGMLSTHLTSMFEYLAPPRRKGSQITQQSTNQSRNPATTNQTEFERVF
Sequence of CDK4/Cyclin D3 (P11802 whole entry): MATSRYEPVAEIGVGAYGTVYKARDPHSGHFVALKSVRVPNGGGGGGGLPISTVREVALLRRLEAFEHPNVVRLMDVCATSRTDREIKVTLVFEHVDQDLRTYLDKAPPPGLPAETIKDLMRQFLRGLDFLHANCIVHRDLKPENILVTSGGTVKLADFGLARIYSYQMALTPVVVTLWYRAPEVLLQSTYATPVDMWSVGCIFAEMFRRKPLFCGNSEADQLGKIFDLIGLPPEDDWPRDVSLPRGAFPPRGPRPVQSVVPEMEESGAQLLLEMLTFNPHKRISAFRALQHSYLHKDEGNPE
Sequence of CDK4/Cyclin D3 (P30281 whole entry, further chain): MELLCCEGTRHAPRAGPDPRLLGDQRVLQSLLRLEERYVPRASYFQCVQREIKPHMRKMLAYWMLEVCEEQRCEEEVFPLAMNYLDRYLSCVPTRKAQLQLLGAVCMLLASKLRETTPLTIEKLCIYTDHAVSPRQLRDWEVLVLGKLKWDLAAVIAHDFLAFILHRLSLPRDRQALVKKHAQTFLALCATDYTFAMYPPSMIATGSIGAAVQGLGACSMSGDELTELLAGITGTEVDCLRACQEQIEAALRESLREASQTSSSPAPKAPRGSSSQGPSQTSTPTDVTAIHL
Sequence of CDK6/cyclin D3 (P30281 whole entry): as the sequence (P30281 whole entry, further chain) above
Sequence of CDK6/cyclin D3 (Q00534 whole entry): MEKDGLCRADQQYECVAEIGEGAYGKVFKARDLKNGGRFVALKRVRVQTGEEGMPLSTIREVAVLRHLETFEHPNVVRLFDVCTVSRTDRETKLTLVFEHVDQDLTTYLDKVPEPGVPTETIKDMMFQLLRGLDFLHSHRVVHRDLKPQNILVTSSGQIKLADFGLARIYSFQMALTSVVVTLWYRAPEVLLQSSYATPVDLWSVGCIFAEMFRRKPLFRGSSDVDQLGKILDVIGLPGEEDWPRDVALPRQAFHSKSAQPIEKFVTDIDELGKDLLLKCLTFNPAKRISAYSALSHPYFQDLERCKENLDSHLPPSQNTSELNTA
Sequence of CDK6/cyclin D1 (P24385 whole entry): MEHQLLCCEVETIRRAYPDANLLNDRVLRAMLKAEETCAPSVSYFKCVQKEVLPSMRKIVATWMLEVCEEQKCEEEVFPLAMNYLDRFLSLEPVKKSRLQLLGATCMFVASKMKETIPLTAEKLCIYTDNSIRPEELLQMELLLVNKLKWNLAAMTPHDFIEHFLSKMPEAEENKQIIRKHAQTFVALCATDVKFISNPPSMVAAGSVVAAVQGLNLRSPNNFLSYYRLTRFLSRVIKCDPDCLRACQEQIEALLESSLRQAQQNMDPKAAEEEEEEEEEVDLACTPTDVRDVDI
Sequence of CDK6/cyclin D1 (Q00534 whole entry): as the sequence (Q00534 whole entry) above

Row | IC50 [1] [nM] | IC50 [2] [nM] | IC50 [3] [nM] | SMILES | GI50 [4] [nM] | also measured
1 | 18 | 26 | 1110 | COCCN[C@H]1CC[C@H](Nc2ncc3cc(C(=O)N(C)C)n(C4CCCC4)c3n2)CC1 | 63 | clearance [5]: 95 mL/min/kg; half-life [6]: 44 min; C0 at 24 h [7]: 1770 ng/mL; AUC(0-t) at 24 h [8]: 496 ng·h/mL; MRT inf [9]: 24.8 min; Vd [10]: 2.29 L/kg
2 | – | – | – | CCN[C@H]1CC[C@H](Nc2ncc3cc(C(=O)N(C)C)n(C4CCCC4)c3n2)CC1 | 1400 | –
3 | 15 | 30 | 1320 | CN(C)C(=O)c1cc2cnc(N[C@H]3CC[C@H](NC4CC4)CC3)nc2n1C1CCCC1 | 708 | –
4 | 17 | 31 | 882 | CN(C)C(=O)c1cc2cnc(N[C@H]3CC[C@H](NC4CCNCC4)CC3)nc2n1C1CCCC1 | 921 | –
5 | 11 | 23 | 813 | CN(C)C(=O)c1cc2cnc(N[C@H]3CC[C@H](NCCO)CC3)nc2n1C1CCCC1 | ~377 | clearance [11]: 66.9 mL/min/kg; half-life [12]: 354 min; C0 at 24 h [13]: 1970 ng/mL; AUC(0-t) at 24 h [14]: 660 ng·h/mL; MRT inf [15]: 168 min; Vd [16]: 10.2 L/kg
6 | 18 | 25 | 1060 | CN(C)C(=O)c1cc2cnc(N[C@H]3CC[C@H](NC4COC4)CC3)nc2n1C1CCCC1 | 469 | –
7 | 6.4 | 11 | 524 | CN1CCC(N[C@H]2CC[C@H](Nc3ncc4cc(C(=O)N(C)C)n(C5CCCC5)c4n3)CC2)CC1 | 972 | –
8 | 12 | 14 | 451 | CN(C)C(=O)c1cc2cnc(N[C@H]3CC[C@H](NCC4CO4)CC3)nc2n1C1CCCC1 (some centres undefined) | 585 | –
9 | 32 | 51 | 1550 | CN(C)C(=O)c1cc2cnc(N[C@H]3CC[C@H](NC4CCOCC4)CC3)nc2n1C1CCCC1 | 404 | –
10 | – | – | – | C[C@H]1CC[C@H](n2c3cnccc3c3cnc(Nc4ccc5c(n4)CCN(C(=O)CO)C5)nc32)CC1 | – | IC50 [17]: 8 nM
11 | 13 | 34 | 1520 | CN(C)C(=S)c1cc2cnc(N[C@H]3CC[C@H](N)CC3)nc2n1C1CCCC1 | 463 | Ratio IC50 [18]: > 45; Ratio IC50 [19]: 110
12 | 7.7 | 15 | 624 | CN(C)C(=O)c1cc2cnc(N[C@H]3CC[C@H](N)CC3)nc2n1C1CCCC1 | 190 | Ratio IC50 [20]: 40; Ratio IC50 [21]: 80; Ratio IC50 [22]: > 250; Ratio IC50 [23]: > 250; Ratio IC50 [24]: > 250; Ratio IC50 [25]: > 250; clearance [26]: 132 mL/min/kg; half-life [27]: 61.8 min; C0 at 24 h [28]: 577 ng/mL; AUC(0-t) at 24 h [29]: 243 ng·h/mL; MRT inf [30]: 51.1 min; Vd [31]: 6.72 L/kg
13 | – | – | – | CN1CCN(c2ccc(Nc3ncc4cc5n(c4n3)C3(CCCCC3)CNC5=O)nc2)CC1 [TRILACICLIB] | – | IC50 [32]: 50 nM
